{
  "source": "paper PMC8305873",
  "about": "“Design and heterologous expression of a novel dimeric LL37 variant in Pichia pastoris” (Microbial Cell Factories, 2021)",
  "key": {"[1]": {"test_system": "E. coli ATCC 25922", "assay": "Transmission electron microscopy (TEM)", "format": "cell-based, Escherichia coli", "details": "1/2 × MIC (1 μM), 37 °C 1 h", "procedure": "E. coli ATCC 25922 was cultured to the logarithmic growth phase and centrifuged to obtain the bacteria. The bacteria were resuspended twice in 0.01 M PBS (pH 7.4) and diluted to OD600 = 0.3. The rLG and bacteria were mixed to a final concentration of 1/2 × MIC (1 μM), and the bacteria without peptide were used as a control. Both samples were incubated at 37 °C for 1 h. The incubated sample was centrifuged at 2500×g for 5 min and washed three times with 0.01 M PBS. Two milliliters of 2.5% glutaraldehyde buffer was added to the bacterial pellet, and the suspension was gently blown and fixed at 4 °C overnight. The cells were washed with 0.01 M PBS and fixed in 1% osmate buffer for 1 h. Then, different concentrations of ethanol were used for gradient dehydration (50%, 70%, 85%, 95% and 100%). Finally, the sample was prepared into ultrathin sections through the process of soaking and embedding, and a Hitachi H-7650 TEM (Hitachi, Japan) was used for observation."}, "[2]": {"test_system": "S. epidermidis ATCC 12228", "format": "cell-based, Staphylococcus epidermidis", "details": "Table 3, recombinant vs synthetic LG; mean ± SD of three independent experiments", "procedure": "(§1) All experiments were conducted at least three different times."}, "[3]": {"test_system": "human red blood cells", "assay": "Hemolytic activity assay", "format": "cell-based", "details": "at the highest peptide concentration (128 μM); human red blood cells, 37 °C 1 h; 0.1% Triton X-100 = 100%"}, "[4]": {"test_system": "E. coli ATCC 25922", "format": "cell-based, Escherichia coli", "procedure": "as §1\nThe salt ions were added to the BSA solution and configured into different final concentrations of salt ions (150 mM NaCl, 4.5 mM KCl, 6 µM NH4Cl, 8 µM ZnCl2, 1 mM MgCl2, 2 mM CaCl2, and 4 µM FeCl3) solutions. The method discribed as above was referred to determine the MIC value of rLG against E. coli ATCC 25922 in the presence of different concentrations of salt ions."}, "[5]": {"test_system": "E. coli ATCC 25922", "assay": "Cell wall (outer membrane) permeabilization, NPN uptake", "format": "cell-based, Escherichia coli", "details": "at low concentrations (1, 2, and 4 µM); compared with melittin", "procedure": "The cell wall permeability was determined by monitoring the fluorescence release of the fluorescent dye NPN (Sigma, USA). E. coli ATCC 25922 (OD600 = 0.2) and NPN (10 µM) were incubated in 5 mM HEPES buffer (containing 5 mM glucose, pH 7.4) for 30 min. Then, 100 µL of peptides (0.5–32 µM) and an equal volume of bacteria were added to a 96-well plate. An F-4500 fluorescence spectrophotometer (Hitachi, Japan) was used to detect the fluorescence intensity of different wells at a 350 nm excitation wavelength and 420 nm emission wavelength. The peptide-free and polymyxin B-containing fluorescence values were set as negative and positive controls."}, "[6]": {"test_system": "S. faecalis ATCC 29212", "format": "cell-based, Streptococcus faecalis", "details": "Table 3, recombinant vs synthetic LG; mean ± SD of three independent experiments", "procedure": "as §1"}, "[7]": {"test_system": "E. coli ATCC 25922", "assay": "Cytoplasmic membrane depolarization, DiSC3-5", "format": "cell-based, Escherichia coli", "procedure": "DiSC3-5 was used to measure the change in plasma membrane potential after peptide treatment. E. coli ATCC 25922 (OD600 = 0.05) was incubated with 0.4 µM DiSC3-5 and 100 mM K^+ in 5 mM HEPES buffer (containing 20 mM glucose, pH 7.4) until the fluorescence decreased stably. […] A fluorescence spectrophotometer (Infinite 200 pro, Tecan, China) was used to record the fluorescence values at an excitation light wavelength of 622 nm and emission light wavelength of 670 nm."}, "[8]": {"test_system": "S. Typhimurium C 7731", "format": "cell-based, Salmonella Typhimurium", "details": "Table 3, recombinant vs synthetic LG; mean ± SD of three independent experiments", "procedure": "as §1"}, "[9]": {"test_system": "S. Typhimurium ATCC 14028", "format": "cell-based, Salmonella Typhimurium", "details": "Table 3, recombinant vs synthetic LG; mean ± SD of three independent experiments", "procedure": "as §1"}, "[10]": {"test_system": "E. coli ATCC 25922", "format": "cell-based, Escherichia coli", "details": "Table 3, recombinant vs synthetic LG; mean ± SD of three independent experiments", "procedure": "as §1"}, "[11]": {"test_system": "E. coli ATCC 078", "format": "cell-based, Escherichia coli", "details": "Table 3, recombinant vs synthetic LG; mean ± SD of three independent experiments", "procedure": "as §1"}, "[12]": {"test_system": "E. coli ATCC 25922", "format": "cell-based, Escherichia coli", "details": "in the absence of physiological salts and serum"}, "[13]": {"test_system": "P. aeruginosa ATCC 27853", "format": "cell-based, Pseudomonas aeruginosa", "details": "Table 3, recombinant vs synthetic LG; mean ± SD of three independent experiments", "procedure": "as §1"}, "[14]": {"test_system": "S. aureus ATCC 25923", "format": "cell-based, Staphylococcus aureus", "details": "Table 3, recombinant vs synthetic LG; mean ± SD of three independent experiments", "procedure": "as §1"}, "[15]": {"test_system": "S. aureus ATCC 29213", "format": "cell-based, Staphylococcus aureus", "details": "Table 3, recombinant vs synthetic LG; mean ± SD of three independent experiments", "procedure": "as §1"}},
  "data": [
    {"sequence": "FKRIVQRIKRFLRGGGGSFKRIVQRIKRFLR [rLG, recombinant LG expressed in P. pastoris as 6 × His-SUMO-LG and released by SUMO protease]", "values": [
      {"measurement": "internal morphology by TEM", "setting": "[1]", "result": "the membrane of E. coli was destroyed, and the cell contents flowed out"},
      {"measurement": "MIC", "setting": "[2]", "result": "1.89 ± 0.11", "unit": "µM"},
      {"measurement": "hemolysis (blood cells destroyed)", "setting": "[3]", "result": "approximately 23%"},
      {"measurement": "MIC under physiological salt concentration, FeCl3", "setting": "[4]; 4 µM FeCl3", "result": 2, "unit": "µM"},
      {"measurement": "MIC under physiological salt concentration, NH4Cl", "setting": "[4]; 6 µM NH4Cl", "result": 2, "unit": "µM"},
      {"measurement": "MIC under physiological salt concentration, ZnCl2", "setting": "[4]; 8 µM ZnCl2", "result": 2, "unit": "µM"},
      {"measurement": "MIC under physiological salt concentration, MgCl2", "setting": "[4]; 1 mM MgCl2", "result": 4, "unit": "µM"},
      {"measurement": "MIC under physiological salt concentration, CaCl2", "setting": "[4]; 2 mM CaCl2", "result": "> 32", "unit": "µM"},
      {"measurement": "MIC under physiological salt concentration, KCl", "setting": "[4]; 4.5 mM KCl", "result": 2, "unit": "µM"},
      {"measurement": "MIC under physiological salt concentration, NaCl", "setting": "[4]; 150 mM NaCl", "result": 2, "unit": "µM"},
      {"measurement": "MIC under physiological salt concentration, GM", "setting": "[4]; geometric mean of the MIC values in the seven salt solutions", "result": 3.62, "unit": "µM"},
      {"measurement": "MIC under physiological salt concentration, Fold", "setting": "[4]; increase of the MIC value (GM in salts) over the control without salts", "result": 1.81},
      {"measurement": "ability to damage or destroy the bacterial cell wall (NPN fluorescence)", "setting": "[5]", "result": "better than that of melittin"},
      {"measurement": "MIC", "setting": "[6]", "result": "1.89 ± 0.11", "unit": "µM"},
      {"measurement": "plasma membrane potential (DiSC3-5 fluorescence intensity)", "setting": "[7]; lowest tested concentration (1 µM)", "result": "caused a rapid increase in fluorescence intensity"},
      {"measurement": "damage to plasma membrane potential compared with melittin (DiSC3-5)", "setting": "[7]; rLG compared with 16 µM melittin", "result": "stronger than that of 16 µM melittin"},
      {"measurement": "MIC", "setting": "[8]", "result": "1.33 ± 0.25", "unit": "µM"},
      {"measurement": "MIC", "setting": "[9]", "result": "3.78 ± 0.44", "unit": "µM"},
      {"measurement": "MIC", "setting": "[10]", "result": "1.77 ± 0.19", "unit": "µM"},
      {"measurement": "MIC", "setting": "[11]", "result": "1.22 ± 0.19", "unit": "µM"},
      {"measurement": "MIC, Control", "setting": "[12]", "result": 2, "unit": "µM"},
      {"measurement": "MIC", "setting": "[13]", "result": "4.44 ± 1.78", "unit": "µM"},
      {"measurement": "MIC", "setting": "[14]", "result": "4.44 ± 1.78", "unit": "µM"},
      {"measurement": "MIC", "setting": "[15]", "result": "2.00 ± 0.00", "unit": "µM"}
    ]}
  ]
}
